Assay results: patent US20250296942A1, “Phosphonate-Based Coordination Complexes and Methods of Preparation and Use Thereof” (University of Puerto Rico, priority 2021, published 2025)

Experiments:
[1] = AlamarBlue cytotoxicity, RISE and nano-Ca@RISE, hFOB 1.19; type: cell-based, human; settings: human, hFOB 1.19 osteoblast cells, hFOB 1.19, read-out: Relative cell viability (% RCL)
Method: (§1) Cell culture methods. The MDA-MB-231 cell line was incubated with DMEM, 1% Pen-Strep, and 10% FBS at 37° C. in 5% CO2. The hFOB 1.19 cell line was incubated with 1:1 DMEM:F-12, 0.3 mg/mL G418, and 10% FBS at 34° C. in 5% CO2. Cell passages were performed weekly at 80% of cell confluency, media was exchanged twice a week.
(§2) Cell treatments. Both cell lines were treated with RISE (control) and nano-Ca@RISE (experimental). […]. Both cell lines (MDA-MB-231 and hFOB 1.19) were seeded in 96 well plates at 2.5×10^5 cell/mL. The cells were incubated for 24 h at 37° C. (MDA-MB-231) and 34° C. (hFOB 1.19), respectively. After the initial incubation period, both cell lines were treated with 100 μL of the RISE solutions previously prepared, and incubation was performed for 24, 48, and 72 h at the respective incubation temperatures. For both cell lines, media (MDA-MB-231: DMEM, Pen-Strep) and (hFOB 1.19: DMEM, F-12, G418) were used with control groups. AlamarBlue® assay was utilized to determine cell proliferation, for this, 10% of AlamarBlue® solution in PBS was prepared. Finally, the media was removed from the 96 well plates, 100 μL of 10% AlamarBlue® solution was added, and the cells were incubated for 4 h at the same previously mentioned conditions. After the AlamarBlue® assay, the fluorescence (λexc=560 nm, λem=590 nm) was evaluated employing an Infinite M200 PRO Tecan Microplate Reader. […]. The nonlinear regression method using Graph Pad Prism 8 was applied to fit the dose-response curves (% cell live vs concentration) and determined the IC50 values for RISE.
(§3) […]. Treatments at these concentrations were carried out at 24, 48, and 72 h for RISE and nano-Ca@RISE. The cell seeding and AlamarBlue® assay were completed as described above for the IC50 determination in both cell lines. […]. All experiments were performed in triplicates and the data was statistically treated using mean, standard deviation, and the coefficient of variation percentage (% CV).
(§4) Cell culture methods for the hFOB 1.19 cell line. This cell line was grown in 1:1 mixture of Ham's F12 Medium Dulbecco's Modified Eagle's Medium accompanied with 10% FBS and 0.3 mg/ml of geneticin (G418), incubated at 34° C. in 5% CO2. Cell passage and cell treatment were performed at 80% of cell confluency. The completed growth media was exchanged every two days.
(§5) Cell seeding. The MDA-MB-231 and hFOB 1.19 cell lines were seeded in 96 well plates at a density of 2.5×10^5 cells/mL, incubation was carried out for 24 h at 37° C. for MDA-MB-231 and 34° C. for osteoblast hFOB 1.19, in 5% CO2. The experiments were conducted in triplicates, three 96 well plates were made for each treatment period (24, 48, and 72 h).
(§6) Cell treatment. To determine the half-maximal inhibitory concentration (IC50), for both cell lines, two-fold serial dilutions of RISE (0-200 μM) were prepared. To assess the relative cell live (% RCL) were employed selected […] (50, 45, 40, and 35 μM) of RISE and nano-Ca@RISE for MDA-MB-231 and hFOB 1.19 cell lines. For this, after the seeding, 100 μL of RISE and nano-Ca@RISE were used to treat the cells. The control groups were treated with just media. Both cell lines were incubated for 24, 48, and 72 h after RISE and nano-Ca@RISE solutions were added.
(§7) AlamarBlue@assay. For both cell lines, after the 24, 48, and 72 h of treatment, the media was removed from the 96 well plates. Subsequently, 100 μL of 10% AlamarBlue® solution was added and incubation was carried out for 4 h. The fluorescence (λexc=570 nm, λem=590 nm) was measured employing an Infinite M200 PRO Tecan Microplate Reader. […]. The IC50 curves and the % RCL values were plotted using the Graph Pad Prism 8 program.

[2] = test system: normal osteoblast-like hFOB 1.19 cell line; experiment: as above; type: cell-based, human; settings: for IC50: Homo sapiens
Method: as §1, §2, §3, §4, §5, §6, §7

SMILES: O=P(O)(O)C(O)(Cc1cccnc1)P(=O)(O)O [RISE, Monosodium risedronate hemipentahydrate]
- viability at 24 h, 35 µM ([1]; 35 μM, 24 h): 100 ± 1%
- viability at 48 h, 35 µM ([1]; 35 μM, 48 h): 101%
- viability at 72 h, 35 µM ([1]; 35 μM, 72 h): 100 ± 2%
- viability at 24 h, 40 µM ([1]; 40 μM, 24 h): 100 ± 1%
- viability at 48 h, 40 µM ([1]; 40 μM, 48 h): 100%
- viability at 72 h, 40 µM ([1]; 40 μM, 72 h): 100 ± 1%
- viability at 24 h, 45 µM ([1]; 45 μM, 24 h): 100 ± 1%
- viability at 48 h, 45 µM ([1]; 45 μM, 48 h): 100 ± 1%
- viability at 72 h, 45 µM ([1]; 45 μM, 72 h): 99 ± 2%
- viability at 24 h, 50 µM ([1]; 50 μM, 24 h): 99 ± 1%
- viability at 48 h, 50 µM ([1]; 50 μM, 48 h): 96 ± 4%
- viability at 72 h, 50 µM ([1]; 50 μM, 72 h): 98 ± 1%
- IC50 ([2]; 24 h): > 200 µM
- IC50 ([2]; 48 h): > 200 µM
- IC50 ([2]; 72 h): > 200 µM
- cell death ([2]; hFOB 1.19, 35 and 40 μM, 24, 48, 72 h): no significant cell death
- % RCL ([2]; hFOB 1.19, 45 and 50 μM, time not stated): ~100%
